Assay results as given in patent US20040014729A1, “Use of estramustine phosphate in the treatment of bone metastasis” (priority 2003, published 2004).
“Also recorded” adds a separate entry of the source.

Legend:
[1] = tested on: mouse calvaria; test: Bone resorption assay, organ culture with 45Ca-prelabeled mouse calvaria (PTH-stimulated 45Ca release); type: cell-based; conditions: for bone resorption in vitro (in words): compound present during culture
Experimental: This example used the organ culture technique with mouse calvaria.
The organ culture technique was used with ^45Ca-prelabeled mouse calvaria. The method has been described by Lerner (1987) and Ljunggren et al. (1991). Newborn mice were injected subcutaneously with ^45CaCl (1.5 μCi/animal). After four days their calvaria were dissected, split into quarters and preincubated in phenol red free CMRL 1066 medium supplemented with 0.1% bovine serum albumin and 50 μg/ml gentamicin for 24 hours at 37° C. in a humidified atmosphere of 5% CO2 in air in the presence of indomethacin (1 μmol/l) and 10 nmol/l bovine parathyroid hormone (PTH). After washing the bone pieces, the medium was changed and cultures incubated for three more days in the same medium but without indomethacin in the presence or absence of estramustine phosphate or clodronate. Resorption was measured by assaying the ^45Ca liberated into the medium using a standard technique for liquid scintillation counting. Total ^45Ca was determined after hydrolysing the calvaria in 6 mol/l HCI overnight. Bone resorption was studied in various concentrations of estramustine phosphate and the effect of estramusine phosphate present only during the preincubation stage was checked in order to study its cytotoxcity.
Results are expressed as mean ±SEM, n=5 or 10. Inhibition percentage was calculated as follows [formula]

[2] = Effect of estramustine phosphate and clodronate on their mutual bioavailability (serum AUC0-24h, Cmax, serum estradiol) in patients
Experimental: Twelve male patients aged 62-80 were divided into two groups of six patients.
The first group of six patients were given 3200 mg daily of clodronate only for four days. On the fifth day the AUC0-24 h for the drug was calculated from serum concentrations of repeated blood samples. On the sixth day, 560 mg estramustine phosphate was add per oral to the clodronate treatment for the following four days. On day ten, the AUC0-24 h for both drugs was calculated.
The second group of six patients were give orally 560 mg daily of estramustine phosphate only for four days. On the fifth day the AUC0-24 h for the drug was calculated from serum concentrations of repeated blood samples. On the sixth day, 3200 mg clodronate was added to the estramustine phosphate treatment for the following four days. On day ten, the AUC0-24 h for both drugs was calculated.
The clodronate was provided as 400 mg capsules, and the estramustine phosphate used was estracyt in 140 mg capsules.
The method used in the analysis of the serum estramustine phosphate concentrations measures […] and is insensitive to any metabolites. The estradiol-related metabolites (estramustine and estradiol) were not analyized in connection with the bioanalysis. […] Unfortunately, estradiol was not measured after administration of estramustine phosphate alone.

[3] = present only during preincubation, then washed away, concentration not given

SMILES	resorption, compound present only during preincubation (in words) ([1]; 10 μmol/l)	resorption, compound present only during preincubation (in words) ([1]; 100 μmol/l)	observation in culture medium ([1]; Experiment 1, 1000 μmol/l)	bone resorption in vitro (in words) [1]	bone resorption in vitro (in words) ([1]; listed as estramustine phosphate sodium)	resorption, compound present only during preincubation (in words) [1, 3]	AUC0-24h and Cmax, alone versus concomitantly with the other drug (in words) ([2]; patients, oral)	bioavailability when the other drug is added (in words) ([2]; patients, oral)	AUC0-24h and Cmax, alone versus concomitantly with the other drug (in words) ([2]; human, in vivo, po)	bioavailability when the other drug is added (in words) ([2]; human, in vivo, po)	AUC0-24h Clodronate ([2]; male, human, in vivo, 3200 mg)
C[C@]12CC[C@@H]3c4ccc(OC(=O)N(CCCl)CCCl)cc4CC[C@H]3[C@@H]1CC[C@@H]2OP(=O)([O-])[O-].[Na+].[Na+] [Estramustine phosphate, Estramustine phosphate sodium]	slightly increased	strongly inhibited	(precipitate)	inhibited bone resorption in this in vitro model concentration-dependently and about as effectively as clodronate	dose-dependently inhibited; also recorded: inhibits bone resorption in vitro	PTH could not stimulate	differed statistically	almost doubled	–	–	–
O=P(O)(O)C(Cl)(Cl)P(=O)(O)O [Clodronate, Disodium clodronate]	–	–	–	–	–	also inhibits resorption	–	–	did not differ significantly	no effect	19300 ng·h/mL
